Results published in the NIST ThermoML archive (doi:10.1021/je400733m).

Conditions: for mass density: Gas, isochoric method; for vapor or sublimation pressure: Liquid

F [hydrogen fluoride]
Conditions | mass density [kg/m3]
363.15 K, 151.2 kPa | 1.024
363.15 K, 268.6 kPa | 1.886
363.15 K, 349.7 kPa | 2.574
363.15 K, 435.2 kPa | 3.463
363.15 K, 519.5 kPa | 4.617
363.15 K, 610.3 kPa | 6.318
363.15 K, 704.7 kPa | 8.73
363.15 K, 792.4 kPa | 11.696
373.15 K, 59.5 kPa | 0.389
373.15 K, 135.1 kPa | 0.89
373.15 K, 249.7 kPa | 1.674
373.15 K, 360.6 kPa | 2.495
373.15 K, 444.9 kPa | 3.191
373.15 K, 555.7 kPa | 4.277
373.15 K, 661.8 kPa | 5.611
373.15 K, 768.8 kPa | 7.405
373.15 K, 872.6 kPa | 9.733
373.15 K, 971.7 kPa | 12.608
383.15 K, 109.3 kPa | 0.69
383.15 K, 256.8 kPa | 1.656
383.15 K, 388.4 kPa | 2.569
383.15 K, 518.3 kPa | 3.557
383.15 K, 666.4 kPa | 4.865
383.15 K, 794.6 kPa | 6.263
383.15 K, 928.9 kPa | 8.187
383.15 K, 1067 kPa | 10.825
383.15 K, 1201 kPa | 14.245
393.15 K, 172.3 kPa | 1.108
393.15 K, 337.7 kPa | 2.178
393.15 K, 505.5 kPa | 3.335
393.15 K, 674.9 kPa | 4.611
393.15 K, 840.7 kPa | 6.052
393.15 K, 1013 kPa | 7.764
393.15 K, 1175 kPa | 10.132
393.15 K, 1344 kPa | 13.239
393.15 K, 1498 kPa | 17.048
403.15 K, 240.6 kPa | 1.492
403.15 K, 449.3 kPa | 2.829
403.15 K, 652.2 kPa | 4.216
403.15 K, 862.3 kPa | 5.791
403.15 K, 1069 kPa | 7.588
403.15 K, 1278 kPa | 9.802
403.15 K, 1491 kPa | 12.74
403.15 K, 1709 kPa | 16.83
403.15 K, 1897 kPa | 21.668
413.15 K, 222.3 kPa | 1.32
413.15 K, 371.4 kPa | 2.232
413.15 K, 508.9 kPa | 3.095
413.15 K, 683.2 kPa | 4.229
413.15 K, 883.6 kPa | 5.621
413.15 K, 1059 kPa | 6.93
413.15 K, 1234 kPa | 8.38
413.15 K, 1399 kPa | 9.914
413.15 K, 1557 kPa | 11.607
413.15 K, 1728 kPa | 13.746
413.15 K, 2034 kPa | 18.831
413.15 K, 2223 kPa | 23.108
433.15 K, 309.8 kPa | 1.785
433.15 K, 698.6 kPa | 4.1
433.15 K, 1068.9 kPa | 6.452
433.15 K, 1452 kPa | 9.113
433.15 K, 1847 kPa | 12.286
433.15 K, 2258 kPa | 16.303
433.15 K, 2635 kPa | 21.034
433.15 K, 3001 kPa | 27.275
433.15 K, 3365 kPa | 36.362
433.15 K, 3703 kPa | 50.976
453.15 K, 476.5 kPa | 2.703
453.15 K, 1014 kPa | 5.793
453.15 K, 1550 kPa | 9.121
453.15 K, 2081 kPa | 12.797
453.15 K, 2621 kPa | 17.077
453.15 K, 3133 kPa | 21.99
453.15 K, 3651 kPa | 28.309
453.15 K, 4173 kPa | 36.974
453.15 K, 4738 kPa | 51.158
453.15 K, 5189 kPa | 73.046
473.15 K, 398.6 kPa | 2.061
473.15 K, 719.1 kPa | 3.785
473.15 K, 1113 kPa | 5.969
473.15 K, 1557 kPa | 8.541
473.15 K, 1986 kPa | 11.159
473.15 K, 2275 kPa | 13.033
473.15 K, 2590 kPa | 15.167
473.15 K, 2992 kPa | 18.107
473.15 K, 3473 kPa | 22.184
473.15 K, 4349 kPa | 30.552
473.15 K, 4995 kPa | 38.609
473.15 K, 5640 kPa | 49.429
473.15 K, 6393 kPa | 68.899
473.15 K, 7041 kPa | 98.187

Conditions | vapor or sublimation pressure [kPa]
363.17 K | 822.2
373.14 K | 1048.5
383.21 K | 1327.1
393.11 K | 1659.3
403.1 K | 2060.2
413.14 K | 2541.3
423.14 K | 3111.5
433.06 K | 3778.1
443.01 K | 4566
454.15 K | 5611.6
